Assay results published in patent US20220267376A1, “P53 ACTIVATOR PEPTIDOMIMETIC MACROCYCLES” (Merck Sharp & Dohme Corp., priority 2019, published 2022).
Positions of bridges follow the written chain, without caps; N, C: chain ends. Non-standard residues stand in square brackets, D forms with d. No end group written: not given here. dPhe(4-CF3) = N[C@H](Cc1ccc(C(F)(F)F)cc1)C(=O)O; dTrp(6-F) = N[C@H](Cc1c[nH]c2cc(F)ccc12)C(=O)O; R5 = C=CCCC[C@@](C)(N)C(=O)O

What was measured:
HCT-116 cells = assay: HCT-116 western blot analysis (p53, MDM2, p21); assay type: cell-based; settings: 6.123, 12.5 and 25 μM, 4 or 24 hours
Protocol: Preparation of compound Stock and working Solutions: 10 mM or 1 mM stock solutions of compounds were prepared in 100% DMSO. Each compound was then serially diluted in 100% DMSO and further diluted 10-fold into HPLC grade sterile water to prepare 10× working solutions in 10% DMSO/water of each compound. Depending on the required volume used in the relevant assay, compounds were added to yield final concentrations as indicated in the relevant figure with a residual DMSO concentration of 1% v/v.
HCT116 cells (Thermo Fisher Scientific) were cultured in DMEM cell media, which was supplemented with 10% foetal calf serum (FBS) and penicillin/streptomycin. All cell lines were maintained in a 37° C. humidified incubator with 5% CO2 atmosphere. HCT116 cells were seeded into 96 well plates at a cell density of 60,000 cells per well and incubated overnight. Cells were also maintained in DMEM cell media with 10% fetal bovine serum (FBS) and penicillin/streptomycin. Cell media was then removed and replaced with cell media containing the various compounds/vehicle controls at the concentrations indicated in DMEM cell media with 2% FCS, After the stated incubation time (4 or 24 hours) cells were rinsed with PBS and then harvested in 100 μl of × NuPAGE LDS sample buffer supplied by Invitrogen (NP0008). […] Protein concentrations were measured by BCA assay (Pierce). […]

[1] = system: HCT116 p53 reporter cells; assay: p53 beta-lactamase reporter gene assay; assay type: cell-based; settings: read-out: P53 activity EC50 (μM) (2% FBS) 16 H; HCT116 p53 reporter, 2% FBS, 16 H
Protocol: The cells were incubated overnight and followed by removal of cell growth media and replaced with Opti-MEM either containing 0% FBS or 10% FBS. […] Measurements were done using Envision multiplate reader (Perkin-Elmer).

[2] = system: Jump-In™ T-REx™ CHO-K1 BLA cells; assay: Tetracycline beta-lactamase reporter gene assay (counterscreen); assay type: cell-based; settings: for EC50: read-out: Counterscreen EC50 (μM) (2% FBS) 16 H, 2% FBS, 16 H
Protocol: Cells were seeded into a 384-well plate a density of 4000 cells per well. […] Measurements were carried out using Envision multiplate reader (Perkin-Elmer).

MDM4 protein (human) [3] = molecular target: MDM4 protein (human) (UniProt O15151); assay: fluorescence polarization, MDM4
MDM4 protein (human) [4] = molecular target: MDM4 protein (human) (UniProt O15151); assay: fluorescence polarization assay on MDM4 (anisotropy falls with the peptide concentration; the labeled tracer used with MDM4 is not given)
[5] = molecular target: T1, human MDM2 protein (amino acids 1-125) (Homo sapiens, UniProt Q00987); assay: fluorescence anisotropy competition: unlabeled peptide titrated against the complex of MDM2 (250 nM) and FAM-labeled 12/1 peptide (50 nM)
T1 sequence (Q00987 1-125 limits assumed): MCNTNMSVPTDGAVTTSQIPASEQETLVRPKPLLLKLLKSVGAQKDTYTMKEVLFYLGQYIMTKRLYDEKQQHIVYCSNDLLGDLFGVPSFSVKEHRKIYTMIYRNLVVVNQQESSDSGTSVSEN

[6] = molecular target: T1, human MDM2 protein (amino acids 1-125); assay: fluorescence polarization, MDM2
[7] = molecular target: T1, human MDM2 protein (amino acids 1-125); assay: SPR, biotinylated MDM2 on streptavidin, peptide as analyte
MDM2 = molecular target: T2, MDM2 (Homo sapiens, UniProt Q00987); assay: Surface plasmon resonance (SPR) binding to MDM2; settings: MDM2
T2 construct: GST (N); His6 (N); made in house; host or cells: E. coli BL21 (DE3) Rosetta T1R
T2 sequence (Q00987 1-125): as the sequence (Q00987 1-125 limits assumed) above
Protocol: SPR experiments were performed with Biacore T100 (GE Healthcare) at 25° C. […] SPR buffer consisted of PBS pH 7.2, 1 mM DTT, 0.01% Tween 20, and 3% DMSO. The CMS chip was first conditioned with 100 mM HCl, followed by 0.1% SIDS, 50 mM NaOH and then water, all performed twice with 6 second injection at a flow rate of 100 μL/min. With the flow rate set to 10 μL/minutes, streptavidin (S4762. Sigma-Aldrich) was immobilized on the conditioned chip through amine coupling as described in the Biacore manual. Excess protein was removed by 30 second injection of the wash solution (50 mM NaOH+1M NaCl) for at least 8 times. The immobilized levels are 3400-3700 RU. The biotinylated MDM2 were captured to the streptavidin, to a level of ˜400 RU for MDM2. Flow cell consisted of only streptavidin was used as the reference surface. Using a flow rate of 30 μL/minutes, peptides dissolved in the SPR buffer are injected for 180 sec. The dissociation was monitored for 300 seconds. […] For single-cycle kinetics, five peptide concentrations were injected consecutively for 180 seconds, followed by a 4000 second dissociation. Similar injection of SPR buffer was followed to allow the surface to be regenerated, though not completely. After the run, responses from the target protein surface are transformed by (i) correcting with DMSO calibration curve, (ii) subtracting the responses obtained from the reference surface, and (iii) subtracting the responses of buffer injections from those of peptide injections. The last step is known as double referencing which corrects the systematic artefacts. The resulting responses were subjected to kinetic analysis by global fitting with 1:1 binding model.

HCT116 cells = assay: Lactate dehydrogenase (LDH) release assay; assay type: cell-based; settings: up to 50 μM
Protocol: The cells were incubated overnight followed by removal of cell media and addition of Opti-MEM Medium without FBS. Cells were then treated with peptides for 4/16 hours in Opti-MEM either in 10% FBS or serum free. Final concentration of DMSO was 0.5%. […] Measurements were carried out using Tecan plate reader.

[8] = Circular dichroism (CD) helicity of peptide in solution; assay type: physicochemical; settings: 25° C.
Protocol: Prior to the experiment, 5 μl of the 10 mM stock peptide was mixed with 45 μl of 100% methanol, and dried for 2 hours in the SpeedVac concentrator (Thermo Scientific). The dried peptide was reconstituted in buffer, containing 1 mM HEPES pH 7.4 and 5% methanol, to a concentration of 1 mM. The peptide sample was placed in a quartz cuvette with a path length of 0.2 cm and the CD spectrum was recorded from 300 to 190 nm at 25° C., using the Chirascan-plus qCD machine (Applied Photophysics). […] An estimate of the secondary stmcture components of the peptide was carried out by converting the CD spectrum to mean residue ellipticity, before deconvoluting using the CDNN software (distributed by Applied Photophysics). All experiments were done in duplicates.

MDM4 = molecular target: T3, MDM4 (Homo sapiens, UniProt O15151); assay: Fluorescence polarization (FP) binding to MDM4/MDMX; settings: FP assay, MDM4 (MDMX)
T3 construct: GST; made in house
T3 sequence (O15151 1-490): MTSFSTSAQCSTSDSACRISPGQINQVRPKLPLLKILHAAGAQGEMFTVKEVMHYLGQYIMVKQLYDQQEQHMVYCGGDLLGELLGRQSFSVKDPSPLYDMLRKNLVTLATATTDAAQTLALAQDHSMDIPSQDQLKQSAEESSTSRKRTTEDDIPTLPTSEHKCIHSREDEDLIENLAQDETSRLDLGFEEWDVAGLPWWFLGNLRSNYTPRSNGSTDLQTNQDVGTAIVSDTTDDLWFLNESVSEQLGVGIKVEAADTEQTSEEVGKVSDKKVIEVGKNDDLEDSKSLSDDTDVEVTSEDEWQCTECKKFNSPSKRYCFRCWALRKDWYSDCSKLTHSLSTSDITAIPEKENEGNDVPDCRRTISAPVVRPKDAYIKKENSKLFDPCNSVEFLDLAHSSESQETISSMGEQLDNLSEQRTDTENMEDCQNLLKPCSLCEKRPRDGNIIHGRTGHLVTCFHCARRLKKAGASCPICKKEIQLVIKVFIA

[9] = molecular target: T1, human MDM2 protein (amino acids 1-125); assay: fluorescence polarization competition, FAM-12/1 tracer, MDM2; FP assay: no binding, Kd capped at 10000 nM
[10] = molecular target: T1, human MDM2 protein (amino acids 1-125); assay: cell-based or functional assay

Molecule: CC(=O)N[C@@H](CC(C)C)C(=O)N[C@H](C(=O)N[C@@H](Cc1ccccc1)C(=O)N[C@]1(C)CCCCCCC=CCCC[C@@](C)(C(=O)N[C@@H](CO)C(=O)N[C@@H](C)C(=O)N[C@@H](C)C(N)=O)NC(=O)[C@H](CC2CCC2)NC(=O)[C@H](CCC(N)=O)NC(=O)[C@H](C)NC(=O)[C@H](Cc2c[nH]c3ccccc23)NC(=O)[C@H](Cc2ccc(O)cc2)NC(=O)[C@H](CCC(=O)O)NC1=O)[C@@H](C)O [ATSP-7041, reference compound]
- Western blot: stabilization of MDM2 and activation of p53 (HCT-116 cells): Stabilization of MDM2 and activation of p53
- EC50 [1]: 1.8 µM
- EC50 [2]: ≥ 50 µM

Molecule: ATSP-7041 (peptide)
- Kd (MDM4 protein (human) [3]): 4.5 nM
- IC50 (read off the curve) (MDM4 protein (human) [4]): 1000 nM
- IC50 (read off the curve) [5]: 500 nM
- Kd [6]: 2 nM
- Kd [7]: < 1 nM

Molecule: CC(C)C[C@H]1NC(=O)[C@@H](CCCCN)NC(=O)[C@@H](CCC(=O)O)NC(=O)[C@@H](Cc2ccc(C(F)(F)F)cc2)NC(=O)[C@@H](CC(N)=O)NC(=O)[C@]2(CCC/C=C\CCCCCC[C@](C)(C(N)=O)NC(=O)[C@@H](CC(C)C)NC1=O)CCC/C=C\CCC[C@@](C)(N)C(=O)N[C@H](C)C(=O)N[C@H](Cc1c[nH]c3cc(F)ccc13)C(=O)N[C@H](Cc1ccc(O)cc1)C(=O)N2 [^DPMI-δ (1-5-12)]
- Western blot: stabilization of MDM2 and activation of p53 (HCT-116 cells): Stabilization of MDM2 and activation of p53
- EC50 [1]: 4 µM
- Kd (MDM2; Table 1): < 1 nM
- Kd (MDM2; Table 2): < 1 nM
- counterscreen activity [2]: negligible counter screen activity
- EC50 [2]: ≥ 50 µM
- LDH leakage (HCT116 cells): No detectable LDH leakage
- CD (% helicity) [8]: 52.1%
- CD (% helicity) ([8]; listed as DPMI-δ(1,5,12)): 52%
- CD (% helicity) ([8]; listed as stitched peptide): 52%
- Kd (MDM4): 12.5 nM

Molecule: [dT][dA][dTrp(6-F)][dY][R5][dN][dPhe(4-CF3)][dE][R5][dL][dL][dR]-NH2 (staple 5-9) [^DPMI-δ(5-9)]
- Kd [9]: > 10000 nM
- P53 activity EC50 (µM) (2% FBS) 16 H [10]: > 50 µM
